Measurements taken from patent US20160051543A1 (CHANRX CORPORATION, priority 2013, published 2016).

Assays:
[1] = Plasma concentrations after a single 300 mg dose of vanoxerine in 25 patients (Example 1); type: in vivo, human; conditions: any time point
Protocol: Each patient gave samples before administration of their dose, and then again at nine further time points, 30 minutes after administration, 1, 2, 3, 4, 6, 8, 12, and 24 hours post administration.

[2] = cited from earlier work
[3] = human, in vivo
Protocol: A standardized meal was served 15 minutes prior to each dosing.
The non-linear kinetics may be due to increasing bioavailability at higher doses based on a saturation of first pass metabolism.

[4] = Adverse events in the AF/AFL conversion study (Example 6); type: in vivo, human
From the text: (§1) The vanoxerine or identical appearing placebo was randomly assigned and administered in a double-blinded fashion.

[5] = Daily dosing for 7 days in four patients (Example 4); type: in vivo, human
[6] = system: conversion to normal sinus rhythm; test: Human plasma concentration charted against conversion to normal sinus rhythm; type: in vivo
Protocol: This study favorable compares favorably to human models where plasma concentration is charted against conversion to normal sinus rhythm. […] However, most conversions occurred in the range of about 60 ng/ml. Accordingly, modifying doses to reach 60 ng/ml or higher is preferred for effective conversion to normal sinus rhythm.

[7] = between patients; cited from earlier work
[8] = clinical; conditions: human, in vivo
From the text: The results are listed below in Table 7.

[9] = cited from earlier work; remark: listed apart in the source
[10] = system: recent onset symptomatic AF/AFL; test: Double-blinded placebo-controlled study, conversion of recent onset symptomatic AF/AFL to sinus rhythm (Example 6); type: in vivo, human
Protocol: as §1
Accordingly, a measurement of the improvement comprises a comparison to the rate of conversion of placebo, wherein the improvement is based on the percent increase in conversion over placebo. The 200 mg, having an improvement of conversion of 38%, 96%, and 55% at the above time points, 300 mg: 207%, 126%, and 68%, and the 400 mg: 300%, 230%, and 121%.
Definition of “pure” atrial flutter: only Atrial Flutter (no AF) seen at −30, −15, and 0 time points. Conversion at any time within 24 hours.
The highest oral dose of 400 mg achieved a conversion rate of 76% at 8 hours and 84% within 24 hours.

- Highest plasma level, low concentration group [1]: ~40 ng/mL
- All patients achieved steady state after [3]: 7 to 10 days
- Steady-state plasma concentrations achieved after [3]: 3 days
- Time to steady-state levels ([5]; all patients, 50, 100, 150 mg daily): within one week
- PK linearity / dose proportionality [8]: linear and dose proportional
- TMax (mean +− SD) [8]: TMax 1.27 +− 0.5 hr
- TMax range ([8]; 50 mg): (0.5-2.0) hr
- half-life ([8]; 50 mg): 4.71 to 111 h
- half-life ([8]; 75 mg): 10.3 to 117 h
- half-life ([8]; 100 mg): 5.56 to 125 h
SMILES: Fc1ccc(C(OCCN2CCN(CCCc3ccccc3)CC2)c2ccc(F)cc2)cc1 [Vanoxerine, 1-[2-[bis(4-fluorophenyl)methoxy]ethyl]-4-(3-phenylpropyl)piperazine]
- AUC ([2]; fasting (no food intake for eight hours)): lowest AUC
- Cmax ([2]; high-fat diet (about 73 g fat) versus fasting and low-fat): significantly increased Cmax
- Time the concentration remains elevated ([2]; high-fat diet): four to six hours
- tmax ([2]; high-fat diet): nearly two and a half hours
- Dose proportionality of steady-state serum levels [3]: disproportionately and statistically greater levels at higher doses
- Number of adverse events reported ([4]; 200 mg (22)): 8 AEs
- Number of serious adverse events ([4]; 200 mg (22)): 1 SAE
- Number of adverse events reported ([4]; 300 mg (25)): 12 AEs
- Number of adverse events reported ([4]; 400 mg (25)): 23 AEs
- Number of serious adverse events ([4]; 400 mg (25)): 1 SAE
- Tolerability ([4]; all doses): well tolerated at all doses
- 1:1 AFL post dose ([4]; any subject): No 1:1 AFL seen post dose in any subject
- Proarrhythmia ([4]; conversion of recent onset symptomatic AF and AFL): absence of proarrhythmia
- Serious adverse events in the study ([4]; one at 200 mg, one at 400 mg, neither related to the study drug): two
- Systolic blood pressure and heart rate ([5]; 100 mg for 7 days): increases in systolic blood pressure and heart rate were seen
- Concentration at which most conversions occurred [6]: about 60 ng/ml
- Difference in Cmax concentrations or AUC between slower and higher metabolism groups [7]: ≥ 10 fold
- Plasma half-life ([9]; in vivo): about 22 hours
- Steady state achieved within ([9]; oral dosing, some cases): ≤ 3 days
- Improvement of conversion (percent increase over placebo) ([10]; 200 mg, 0-4 hours): 38%
- Improvement of conversion (percent increase over placebo) ([10]; 200 mg, 0-8 hours): 96%
- Improvement of conversion (percent increase over placebo) ([10]; 200 mg, 0-24 hours): 55%
- Improvement of conversion (percent increase over placebo) ([10]; 300 mg, 0-24 hours): 68%
- Improvement of conversion (percent increase over placebo) ([10]; 400 mg, 0-4 hours): 300%
- Improvement of conversion (percent increase over placebo) ([10]; 400 mg, 0-8 hours): 230%
- Dose dependence of conversion to sinus rhythm ([10]; doses of 200, 300 and 400 mg): highly statistically significant dose dependent increase
